The values that follow come from US20260007681A1, “INDOLE DERIVATIVES AS ESTROGEN RECEPTOR DEGRADERS” (REGENTS OF THE UNIVERSITY OF MICHIGAN, priority 2022, published 2026).

Like-named read-outs stand apart in the source and are kept apart here. Bounds are passed on as bounds.

Assay [1] can be described thus: Cell growth assay (WST-8) (Compounds B1-B278). The format is cell-based. To be noted: T47D cell line, WST-8, 4 days, read-out: Cell Growth Inhibition in T47D cell line IC50. In short, it runs like this:
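Read-out is WST-8 absorbance at 450 nm (2.5 h, 37° C) as a fraction of vehicle control, from three separate repeats. Compound exposure lasted 4 days, starting one day after plating 1500 cells/well.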
For orientation: Formazan colour is commonly taken as a measure of viable cells.

For a further assay, the target named is ER (Homo sapiens (Human), UniProt P03372). Nature of the assay: In-cell western blot analysis of relative ER percentage (Compounds B1-B278). To be noted: ER degradation, 16 hours, read-out: ICW DC50. The format is cell-based. A digest of the protocol:
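In-cell western: after 16 h compound exposure (0.5% DMSO final), fixed and permeabilized cells are probed with anti-ER plus anti-GAPDH and near-infrared secondaries. Relative ER percentage compares treated wells against untreated and DMSO wells taken as 100%; seeding 40,000 or 10,000 cells/well.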

Chain of ER (P03372 whole entry): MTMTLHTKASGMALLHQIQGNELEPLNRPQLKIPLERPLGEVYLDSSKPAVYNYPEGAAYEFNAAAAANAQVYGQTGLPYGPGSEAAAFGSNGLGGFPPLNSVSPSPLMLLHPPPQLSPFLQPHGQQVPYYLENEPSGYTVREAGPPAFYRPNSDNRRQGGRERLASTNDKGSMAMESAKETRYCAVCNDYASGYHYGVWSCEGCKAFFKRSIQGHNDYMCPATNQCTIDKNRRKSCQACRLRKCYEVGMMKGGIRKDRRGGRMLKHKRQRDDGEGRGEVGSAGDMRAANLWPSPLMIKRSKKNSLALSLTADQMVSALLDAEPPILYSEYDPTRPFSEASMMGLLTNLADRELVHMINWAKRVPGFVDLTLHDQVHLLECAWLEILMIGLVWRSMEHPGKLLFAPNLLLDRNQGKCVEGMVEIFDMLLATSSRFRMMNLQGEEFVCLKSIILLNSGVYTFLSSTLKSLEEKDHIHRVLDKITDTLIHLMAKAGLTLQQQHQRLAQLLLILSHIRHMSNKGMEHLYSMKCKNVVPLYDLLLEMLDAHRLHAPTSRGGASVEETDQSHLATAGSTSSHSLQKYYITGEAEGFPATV

For the compound `C[C@@H]1Cc2c([nH]c3ccccc23)[C@@H](c2cnc(N3CCC4(CCC(N5CCN6c7cc8c(cc7OC[C@@H]6C5)C(=O)N(C5CCC(=O)NC5=O)C8)CC4)CC3)nc2)N1CC(C)(C)F` (stereo partly drawn) [Compound B139, 3-((S)-3-(3-(5-((1R,3R)-2-(2-fluoro-2-methylpropyl)-3-methyl-2,3,4,9-tetrahydro-1H-pyrido[3,4-b]indol-1-yl)pyrimidin-2-yl)-3-azaspiro[5.5]undecan-9-yl)-8-oxo-1,2,3,4,4a,5,8,10-octahydro-9H-pyrazino[1′,2′:4,5][1,4]oxazino[2,3-f]isoindol-9-yl)piperidine-2,6-dione], the IC50 in assay [1] (96 h) is 1 to 10 nM. Moreover, the DC50 on ER is less than 10 nM.

With `COc1cc(N2CCC3(CC2)CC(CN2CCC4(CC2)COc2c4ccc4c2CN(C2CCC(=O)NC2=O)C4=O)C3)ccc1[C@@H]1c2[nH]c3ccccc3c2C[C@@H](C)N1CC(F)F` (stereo partly drawn) [Compound B140, 3-(1′-((7-(4-((1R,3R)-2-(2,2-difluoroethyl)-3-methyl-2,3,4,9-tetrahydro-1H-pyrido[3,4-b]indol-1-yl)-3-methoxyphenyl)-7-azaspiro[3.5]nonan-2-yl)methyl)-6-oxo-6,8-dihydro-2H,7H-spiro[furo[2,3-e]isoindole-3,4′-piperidin]-7-yl)piperidine-2,6-dione], in assay [1] (96 h), the IC50 is less than 1 nM. The DC50 at ER was less than 10 nM.

Turning to `COc1cc(N2CCC3(CC2)CC(CN2CCN4c5cc6c(cc5OC[C@@H]4C2)C(=O)N(C2CCC(=O)NC2=O)C6)C3)ccc1[C@@H]1c2[nH]c3ccccc3c2C[C@@H](C)N1CC(F)F` (stereo partly drawn) [Compound B141, 3-((S)-3-((7-(4-((1R,3R)-2-(2,2-difluoroethyl)-3-methyl-2,3,4,9-tetrahydro-1H-pyrido[3,4-b]indol-1-yl)-3-methoxyphenyl)-7-azaspiro[3.5]nonan-2-yl)methyl)-8-oxo-1,2,3,4,4a,5,8,10-octahydro-9H-pyrazino[1′,2′:4,5][1,4]oxazino[2,3-f]isoindol-9-yl)piperidine-2,6-dione], the IC50 in assay [1] (96 h) was in the range of 1 to 10 nM. Besides, at ER, the DC50 was less than 10 nM.

On to `COc1cc(N2CCC3(CC2)CC(CN2CCN4c5cc6c(cc5OC[C@@H]4C2)C(=O)N(C2CCC(=O)NC2=O)C6)CO3)ccc1[C@@H]1c2[nH]c3ccccc3c2C[C@@H](C)N1CC(F)F` (stereo partly drawn) [Compound B142, 3-((4aS)-3-((8-(4-((1R,3R)-2-(2,2-difluoroethyl)-3-methyl-2,3,4,9-tetrahydro-1H-pyrido[3,4-b]indol-1-yl)-3-methoxyphenyl)-1-oxa-8-azaspiro[4.5]decan-3-yl)methyl)-8-oxo-1,2,3,4,4a,5,8,10-octahydro-9H-pyrazino[1′,2′:4,5][1,4]oxazino[2,3-f]isoindol-9-yl)piperidine-2,6-dione], for which the IC50 in assay [1] (96 h) is less than 1 nM. On ER, the 50% degradation concentration (DC50) lay within 10 to 100 nM.

In the case of `COc1cc(N2CCC3(CC2)CC(CN2CCN4c5ccc6c(c5OC[C@H]4C2)CN(C2CCC(=O)NC2=O)C6=O)CO3)ccc1[C@@H]1c2[nH]c3ccccc3c2C[C@@H](C)N1CC(F)F` (stereo partly drawn) [Compound B143, 3-((5aR)-7-((8-(4-((1R,3R)-2-(2,2-difluoroethyl)-3-methyl-2,3,4,9-tetrahydro-1H-pyrido[3,4-b]indol-1-yl)-3-methoxyphenyl)-1-oxa-8-azaspiro[4.5]decan-3-yl)methyl)-1-oxo-1,3,5,5a,6,7,8,9-octahydro-2H-pyrazino[1′,2′:4,5][1,4]oxazino[2,3-e]isoindol-2-yl)piperidine-2,6-dione], the IC50 in assay [1] (96 h) is less than 1 nM. In addition, the DC50 on ER was less than 10 nM.

On to `COc1cc(N2CCC3(CC2)CC(CN2CCN4c5ccc6c(c5OC[C@H]4C2)CN(C2CCC(=O)NC2=O)C6=O)CO3)ccc1[C@@H]1c2[nH]c3ccccc3c2C[C@@H](C)N1CC(F)F` (stereo partly drawn) [Compound B144, (3S)-3-((5aR)-7-((8-(4-((1R,3R)-2-(2,2-difluoroethyl)-3-methyl-2,3,4,9-tetrahydro-1H-pyrido[3,4-b]indol-1-yl)-3-methoxyphenyl)-1-oxa-8-azaspiro[4.5]dccan-3-yl)methyl)-1-oxo-1,3,5,5a,6,7,8,9-octahydro-2H-pyrazino[1′,2′:4,5][1,4]oxazino[2,3-e]isoindol-2-yl)piperidine-2,6-dione], for which the IC50 in assay [1] is less than 1 nM. In addition, on ER, the DC50 is less than 10 nM.

`C[C@@H]1Cc2c([nH]c3ccccc23)[C@@H](c2ccc(N3CCC4(CC3)CC(CN3CCC5(CC3)COc3c5ccc5c3CN(C3CCC(=O)NC3=O)C5=O)CO4)cn2)N1CC(F)(F)F` (stereo partly drawn) [Compound B145, 3-(1′-((8-(6-((1S,3R)-3-methyl-2-(2,2,2-trifluoroethyl)-2,3,4,9-tetrahydro-1H-pyrido[3,4-b]indol-1-yl)pyridin-3-yl)-1-oxa-8-azaspiro[4.5]decan-3-yl)methyl)-6-oxo-6,8-dihydro-2H,7H-spiro[furo[2,3-e]isoindole-3,4′-piperidin]-7-yl)piperidine-2,6-dionc]: the IC50 in assay [1] (96 h) is less than 1 nM. The DC50 on ER is less than 10 nM.

On to `C[C@@H]1Cc2c([nH]c3ccccc23)[C@@H](c2ccc(N3CCC4(CC3)CC(CN3CCN5c6ccc7c(c6OC[C@H]5C3)CN([C@H]3CCC(=O)NC3=O)C7=O)CO4)cn2)N1CC(F)(F)F` (stereo partly drawn) [Compound B146, (3S)-3-((5aR)-7-((8-(6-((1S,3R)-3-methyl-2-(2,2,2-trifluoroethyl)-2,3,4,9-tetrahydro-1H-pyrido[3,4-b]indol-1-yl)pyridin-3-yl)-1-oxa-8-azaspiro[4.5]decan-3-yl)methyl)-1-oxo-1,3,5,5a,6,7,8,9-octahydro-2H-pyrazino[1′,2′:4,5][1,4]oxazino[2,3-e]isoindol-2-yl)piperidine-2,6-dione], for which, in assay [1] (96 h), the IC50 lay in the range of 1 to 10 nM. For the same compound, the DC50 on ER was 10 to 100 nM.

For `C[C@@H]1Cc2c([nH]c3ccccc23)[C@@H](c2ccc(N3CCC4(CC3)CC(CN3CCN5c6cc7c(cc6OC[C@@H]5C3)C(=O)N(C3CCC(=O)NC3=O)C7)CO4)cn2)N1CC(F)(F)F` (stereo partly drawn) [Compound B147, 3-((4aS)-3-((8-(6-((1S,3R)-3-methyl-2-(2,2,2-trifluoroethyl)-2,3,4,9-tetrahydro-1H-pyrido[3,4-b]indol-1-yl)pyridin-3-yl)-1-oxa-8-azaspiro[4.5]dccan-3-yl)methyl)-8-oxo-1,2,3,4,4a,5,8,10-octahydro-9H-pyrazino[1′,2′:4,5][1,4]oxazino[2,3-f]isoindol-9-yl)piperidine-2,6-dione], in assay [1] (96 h), the IC50 was in the range of 1 to 10 nM. Also, the DC50 at ER is 10 to 100 nM.

For `C[C@@H]1Cc2c([nH]c3ccccc23)[C@@H](c2c(F)cc(N3CCC(CN4CCN5c6ccc7c(c6OC[C@H]5C4)CN(C4CCC(=O)NC4=O)C7=O)CC3)cc2F)N1CC(F)(F)CO` (stereo partly drawn) [Compound B148, 3-((R)-7-((1-(4-((1R,3R)-2-(2,2-difluoro-3-hydroxypropyl)-3-methyl-2,3,4,9-tetrahydro-1H-pyrido[3,4-b]indol-1-yl)-3,5-difluorophenyl)piperidin-4-yl)methyl)-1-oxo-1,3,5,5a,6,7,8,9-octahydro-2H-pyrazino[1′,2′:4,5][1,4]oxazino[2,3-e]isoindol-2-yl)piperidine-2,6-dione], in assay [1] (96 h), the IC50 was less than 1 nM. Further, on ER, the DC50 is more than 100 nM.

Turning to `C[C@@H]1Cc2c([nH]c3ccccc23)[C@@H](c2c(F)cc(N3CC[C@@H](CN4CCN5c6ccc7c(c6OC[C@H]5C4)CN(C4CCC(=O)NC4=O)C7=O)C3)cc2F)N1CC(F)(F)CO` (stereo partly drawn) [Compound B149, 3-((R)-7-(((S)-1-(4-((1R,3R)-2-(2,2-difluoro-3-hydroxypropyl)-3-methyl-2,3,4,9-tetrahydro-1H-pyrido[3,4-b]indol-1-yl)-3,5-difluorophenyl)pyrrolidin-3-yl)methyl)-1-oxo-1,3,5,5a,6,7,8,9-octahydro-2H-pyrazino[1′,2′:4,5][1,4]oxazino[2,3-e]isoindol-2-yl)piperidine-2,6-dione], in assay [1] (96 h), the IC50 fell in the range of 1 to 10 nM. On ER, the DC50 was more than 100 nM.

Regarding `C[C@@H]1Cc2c([nH]c3ccccc23)[C@@H](c2c(F)cc(N3CC[C@H](CN4CCN5c6ccc7c(c6OC[C@H]5C4)CN(C4CCC(=O)NC4=O)C7=O)C3)cc2F)N1CC(F)(F)CO` (stereo partly drawn) [Compound B150, 3-((R)-7-(((R)-1-(4-((1R,3R)-2-(2,2-difluoro-3-hydroxypropyl)-3-methyl-2,3,4,9-tetrahydro-1H-pyrido[3,4-b]indol-1-yl)-3,5-difluorophenyl)pyrrolidin-3-yl)methyl)-1-oxo-1,3,5,5a,6,7,8,9-octahydro-2H-pyrazino[1′,2′:4,5][1,4]oxazino[2,3-e]isoindol-2-yl)piperidine-2,6-dione], the IC50 in assay [1] (96 h) fell in the range of 1 to 10 nM. For the same compound, the DC50 at ER is 10 to 100 nM.

On to `C[C@@H]1Cc2c([nH]c3ccccc23)[C@@H](c2c(F)cc(N3CCN(C(=O)CN4CCN5c6ccc7c(c6OC[C@H]5C4)CN(C4CCC(=O)NC4=O)C7=O)CC3)cc2F)N1CC(F)F` (stereo partly drawn) [Compound B151, 3-((R)-7-(2-(4-(4-((1R,3R)-2-(2,2-difluoroethyl)-3-methyl-2,3,4,9-tetrahydro-1H-pyrido[3,4-b]indol-1-yl)-3,5-difluorophenyl)piperazin-1-yl)-2-oxoethyl)-1-oxo-1,3,5,5a,6,7,8,9-octahydro-2H-pyrazino[1′,2′:4,5][1,4]oxazino[2,3-e]isoindol-2-yl)piperidine-2,6-dione], for which, in assay [1] (96 h), the IC50 was less than 1 nM. In addition, the DC50 at ER was more than 100 nM.

Take `C[C@@H]1Cc2c([nH]c3ccccc23)[C@@H](c2cnc(N3CCC4(CC3)CC(CN3CCN5c6ccc7c(c6OC[C@H]5C3)CN(C3CCC(=O)NC3=O)C7=O)C4)nc2)N1CC(F)(F)CO` (stereo partly drawn) [Compound B153, 3-((R)-7-((7-(5-((1R,3R)-2-(2,2-difluoro-3-hydroxypropyl)-3-methyl-2,3,4,9-tetrahydro-1H-pyrido[3,4-b]indol-1-yl)pyrimidin-2-yl)-7-azaspiro[3.5]nonan-2-yl)methyl)-1-oxo-1,3,5,5a,6,7,8,9-octahydro-2H-pyrazino[1′,2′:4,5][1,4]oxazino[2,3-e]isoindol-2-yl)piperidine-2,6-dione]: the IC50 in assay [1] (96 h) was 1 to 10 nM. On ER, the DC50 fell in the range of 10 to 100 nM.

By IC50 is commonly meant the concentration that gives 50% inhibition. Broadly, the DC50 is the concentration at which degradation of the target reaches its halfway point.
